Columns and labels:
Assay in all cases: relative viability (nuclei count vs DMSO), 5 days (fraction); higher = more cells survive
Gemcitabine + Lapatinib = compound: Nc1ccn([C@@H]2O[C@H](CO)[C@@H](O)C2(F)F)c(=O)n1 [Gemcitabine] + CS(=O)(=O)CCNCc1ccc(-c2ccc3ncnc(Nc4ccc(OCc5cccc(F)c5)c(Cl)c4)c3c2)o1 [Lapatinib] (partner 2 µM)
How it was run: (§1)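 Relative viability was taken as the ratio of nuclei in treated wells to nuclei in vehicle wells. Lung cancer cell lines in 1536-well plates received compounds by pin tool one day after seeding, either one drug alone or a fixed anchor-drug dose plus five library-drug doses (not always all listed) in √10 steps. Nuclei were counted on 4× images after 5 days of treatment, and values are medians of duplicate plates.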

Gemcitabine + AZD7762 = compound: Nc1ccn([C@@H]2O[C@H](CO)[C@@H](O)C2(F)F)c(=O)n1 [Gemcitabine] + NC(=O)Nc1cc(-c2cccc(F)c2)sc1C(=O)N[C@H]1CCCNC1 [AZD7762] (partner 0.2 µM)
How it was run: as §1

Gemcitabine + Olaparib = compound: Nc1ccn([C@@H]2O[C@H](CO)[C@@H](O)C2(F)F)c(=O)n1 [Gemcitabine] + O=C(c1cc(Cc2n[nH]c(=O)c3ccccc23)ccc1F)N1CCN(C(=O)C2CC2)CC1 [Olaparib] (partner 8 µM)
How it was run: as §1

Gemcitabine + Decitabine = compound: Nc1ccn([C@@H]2O[C@H](CO)[C@@H](O)C2(F)F)c(=O)n1 [Gemcitabine] + Nc1ncn([C@H]2C[C@H](O)[C@@H](CO)O2)c(=O)n1 [Decitabine] (partner 2 µM)
How it was run: as §1

| Cell Line | relative viability (Gemcitabine + Lapatinib; first compound 0.001 µM) | relative viability (Gemcitabine + Lapatinib; first compound 0.003162 µM) | relative viability (Gemcitabine + Lapatinib; first compound 0.01 µM) | relative viability (Gemcitabine + Lapatinib; first compound 0.03162 µM) | relative viability (Gemcitabine + Lapatinib; first compound 0.1 µM) | relative viability (Gemcitabine + AZD7762; first compound 0.001 µM) | relative viability (Gemcitabine + AZD7762; first compound 0.003162 µM) | relative viability (Gemcitabine + AZD7762; first compound 0.01 µM) | relative viability (Gemcitabine + AZD7762; first compound 0.03162 µM) | relative viability (Gemcitabine + AZD7762; first compound 0.1 µM) | relative viability (Gemcitabine + Olaparib; first compound 0.001 µM) | relative viability (Gemcitabine + Olaparib; first compound 0.003162 µM) | relative viability (Gemcitabine + Olaparib; first compound 0.01 µM) | relative viability (Gemcitabine + Olaparib; first compound 0.03162 µM) | relative viability (Gemcitabine + Olaparib; first compound 0.1 µM) | relative viability (Gemcitabine + Decitabine; first compound 0.001 µM) | relative viability (Gemcitabine + Decitabine; first compound 0.003162 µM) | relative viability (Gemcitabine + Decitabine; first compound 0.01 µM) | relative viability (Gemcitabine + Decitabine; first compound 0.03162 µM) | relative viability (Gemcitabine + Decitabine; first compound 0.1 µM) |
| --- | --- | --- | --- | --- | --- | --- | --- | --- | --- | --- | --- | --- | --- | --- | --- | --- | --- | --- | --- | --- |
| NCI-H2347 | 0.952 | 0.896 | 0.646 | 0.655 | 0.467 | 0.494 | 0.468 | 0.205 | 0.217 | 0.233 | 0.603 | 0.529 | 0.496 | 0.383 | 0.373 | 0.537 | 0.645 | 0.58 | 0.478 | 0.539 |
| NCI-H2405 | 1.03 | 0.445 | 0.362 | 0.243 | 0.162 | 0.518 | 0.23 | 0.193 | 0.193 | 0.195 | 0.842 | 0.766 | 0.361 | 0.23 | 0.179 | 0.735 | 0.676 | 0.427 | 0.31 | 0.226 |
| NCI-H3122 | 1.02 | 1.04 | 0.926 | 0.476 | 0.243 | 1.02 | 0.783 | 0.126 | 0.0803 | 0.097 | 0.622 | 0.625 | 0.396 | 0.136 | 0.107 | 0.361 | 0.396 | 0.389 | 0.175 | 0.146 |
| PC-3 [JPC-3] | 0.468 | 0.416 | 0.424 | 0.278 | 0.266 | 0.761 | 0.482 | 0.336 | 0.35 | 0.299 | 1.24 | 0.614 | 0.49 | 0.478 | 0.349 | 0.935 | 0.573 | 0.602 | 0.524 | 0.465 |
| PC-14 | 0.323 | 0.234 | 0.203 | 0.0925 | 0.0562 | 0.269 | 0.0798 | 0.0434 | 0.0466 | 0.0618 | 0.256 | 0.13 | 0.0358 | 0.0472 | 0.0357 | 0.217 | 0.0953 | 0.0507 | 0.0388 | 0.0405 |
| RERF-LC-KJ | 0.858 | 0.821 | 0.89 | 0.909 | 0.407 | 1.14 | 1 | 0.951 | 0.233 | 0.181 | 1 | 0.87 | 0.804 | 0.389 | 0.293 | 0.831 | 0.701 | 0.636 | 0.529 | 0.324 |

Source: the supplement of paper PMC10307832
